In brackets after ≈: the same amount, converted by molar mass.
tested on: Aspergillus fumigatus (ATCC MYA-4609/AF293/CBS 101355); assay: Measurement of minimum inhibitory concentration (MIC), AF293; format: cell-based; conditions: Aspergillus fumigatus AF293, 35° C., 48 hours, RPMI1640
Experimental: New streaks are made with glycerol stock solution of the strains of Aspergillus fumigatus (ATCC MYA-4609/AF 293/CBS 101355) on Sabouraud's dextrose agar (SDA), incubate at 35° C. and a humidity of 40-70% for 72 hours. Other strains are processed as the same as AF293.
RPMI1640: one packet of RPMI1640 powder is dissolved in 1 L purified water and mixed well, add 0.165M MOPS, adjust the pH to 7.0, sterilize by filtration with 0.22 um membrane, and store at 4° C. for no more than 3 months.
Physiological saline: weigh 9 g of sodium chloride powder and dissolve in 1 L of purified water, and mixed well. Sterilize at 121° C. for 30 min, store at room temperature (RT) for no more than 1 week.
Dissolve the test compound and stock solution of one control compound with DMSO and obtain solutions at a concentration of 12.8 mg/mL
The maximum concentration of each compound is 0.8 mg/mL (e.g., 150 μL of dimethyl sulfoxide+10 uL of 12.8 mg/mL compound/control). Column 1 is filled with 40 μL of compound and columns 2 to 11 with 20 μL of dimethyl sulfoxide. Transfer 20 μL of compound from column 1 to column 2 to dilute the concentration. Repeat the above steps up to column 11 to give 2× serial dilutions.
2 μL of the above 2× serial dilutions are injected into each hole of the corresponding test plate using a multichannel pipette.
Drop 5 ml of saline on the Aspergillus fumigatus SDA plate. The spores were carefully wiped off from the surface of the plate with an L-shaped coating rod. Then the suspension is transferred into a sterile tube. After shaking, let the tube stand for 5 to 10 minutes. Count the number of spores in the upper suspension with a hemocytometer and check the purity. Adjust the inoculum concentration to 0.2-2.5×10^4 spores/mL.
Inject 198 μL of diluted inoculum into each holes of the corresponding test plate using a multichannel pipette.
Incubate at 35° C. for 48 hours.
To facilitate scoring of the presence or absence of growth on the wall, a magnifying glass is used. The tested 96-well microplates were photographed and the optical density at 530 nm is read with an enzyme marker (Tecan Spark).

Row | AF293: MIC [µg/mL] | SMILES
1 | 0.06 | Cc1cc(-c2ccccc2)c(C(=O)C(=O)Nc2ccc3c(c2)CC2CN(c4ncc(F)cn4)CCCN32)n1C (stereo not shown) [2 (T-2-a), 2-(1,5-dimethyl-3-phenyl-1H-pyrrol-2-yl)-N-(2-(5-fluoropyrimidin-2-yl)-2,3,4,5,11,11a-hexahydro-1H-[1,4]diaza[1,2-a]indol-9-yl)-2-oxoacetamide]
2 | 0.06 | Cc1cc(-c2ccccc2)c(C(=O)C(=O)Nc2ccc3c(c2)CC2CCN(c4ncc(F)cn4)CCN32)n1C (stereo not shown) [2 (T-2-b), 2-(1,5-dimethyl-3-phenyl-1H-pyrrol-2-yl)-N-(3-(5-fluoropyrimidin-2-yl)-2,3,4,5,11,11a-hexahydro-1H-[1,4]diaza[1,7-a]indol-9-yl)-2-oxoacetamide]
3 | 0.06 | Cc1cc(-c2ccccc2)c(C(=O)C(=O)Nc2ccc3c(c2)OCC2CN(c4ncc(C#N)cn4)CCN32)n1C (stereo not shown) [Example 7, N-(3-(5-cyanopyrimidin-2-yl)-1,2,3,4,4a,5-hexahydrobenzo[b]pyrazino[1,2-d] [1,4]oxazin-8-yl)-2-(1,5-dimethyl-3-phenyl-1H-pyrrol-2-yl)-2-oxyacetamide]
4 | 1 | Cc1cc(-c2ccccc2)c(C(=O)C(=O)Nc2ccc3c(c2)OCC2CN(c4ncn(C)n4)CCN32)n1C (stereo not shown) [Example 17]
5 | 0.03 | Cc1cc(-c2ccccc2)c(C(=O)C(=O)Nc2ccc3c(c2)COCC2CN(c4ncc(F)cn4)CCN32)n1C (stereo not shown) [Example 18, 2-(1,5-dimethyl-3-phenyl-1H-pyrrol-2-yl)-N-(3-(5-fluoropyrimidin-2-yl)-1,2,3,4,4a,5-hexahydro-7H-benzo[e]pyrazino[2,1-c] [1,4]oxazolin-9-yl)-2-oxoacetamide]
6 | 1 | Cc1cc(-c2ccccc2)c(C(=O)C(=O)Nc2ccc3c(c2)CN(C)CC2CN(c4ncc(F)cn4)CCN32)n1C (stereo not shown) [Example 31]

same assay, conditions: Aspergillus fumigatus, CBS101355, 48 h, read-out: AF293: MIC, Aspergillus fumigatus AF293, 35° C., 48 hours, RPMI1640

Row | SMILES | MIC [µg/mL]
7 | Cc1cc(-c2ccccc2)c(C(=O)C(=O)Nc2cc(F)c3c(c2)OC[C@H]2CN(c4ncc(F)cn4)CCN32)n1C [Example 25, (R)-2-(1,5-dimethyl-3-phenyl-1H-pyrrol-2-yl)-N-(10-fluoro-3-(5-fluoropyrimidin-2-yl)-1,2,3,4,4a,5-hexahydrobenzo[b]pyrazino[1,2-d] [1,4]oxazin-8-yl)-2-oxoacetamide] | 0.06 (≈ 0.11 µM)

same assay, conditions: CBS101355; Aspergillus fumigatus AF293, 35° C., 48 hours, RPMI1640; read-out: AF293: MIC

Row | SMILES | MIC [µg/mL]
8 | Cc1cc(-c2ccccc2)c(C(=O)C(=O)Nc2ccc3c(c2)OCC2CN(c4nccc(Cl)n4)CCN32)n1C (stereo not shown) [Example 10] | 0.06 (≈ 0.11 µM)
9 | Cc1cc(-c2ccccc2)c(C(=O)C(=O)Nc2ccc3c(c2)OCC2CN(c4ccnc(Cl)n4)CCN32)n1C (stereo not shown) [Example 11] | 0.5 (≈ 0.921 µM)
10 | Cc1cc(-c2ccccc2)c(C(=O)C(=O)Nc2ccc3c(c2)OCC2CN(c4ncc(C#N)s4)CCN32)n1C (stereo not shown) [Example 12] | 0.13 (≈ 0.241 µM)
11 | Cc1cc(-c2ccccc2)c(C(=O)C(=O)Nc2ccc3c(c2)OCC2CN(c4ccc(F)nn4)CCN32)n1C (stereo not shown) [Example 13] | 0.25 (≈ 0.475 µM)
12 | Cc1cc(-c2ccccc2)c(C(=O)C(=O)Nc2ccc3c(c2)OCC2CN(c4ccc(F)cn4)CCN32)n1C (stereo not shown) [Example 14] | 0.06 (≈ 0.114 µM)
13 | Cc1cc(-c2ccccc2)c(C(=O)C(=O)Nc2ccc3c(c2)OC[C@H]2CN(c4ncc(N5CCC5)cn4)CCN32)n1C [Example 23, (R)—N-(3-(5-(azetidin-1-yl)pyrimidin-2-yl)-1,2,3,4,4a,5-hexahydrobenzo[b]pyrazino[1,2-d] [1,4]oxazin-8-yl)-2-(1,5-dimethyl-3-phenyl-1H-pyrrol-2-yl)-2-oxoacetamide] | 0.13 (≈ 0.231 µM)
14 | Cc1cc(-c2ccccc2)c(C(=O)C(=O)Nc2ccc3c(c2)OC[C@H]2CN(c4ncc(N5CCOCC5)cn4)CCN32)n1C [Example 24, (R)-2-(1,5-dimethyl-3-phenyl-1H-pyrrol-2-yl)-N-(3-(5-morpholinopyrimidin-2-yl)-1,2,3,4,4a,5-hexahydrobenzo[b]pyrazino[1,2-d] [1,4]oxazin-8-yl)-2-oxoacetamide] | 0.13 (≈ 0.219 µM)
15 | Cc1cc(-c2ccccc2)c(C(=O)C(=O)Nc2ccc3c(c2)OC[C@H]2CN(c4ncncn4)CCN32)n1C [Example 28, (R)—N-(3-(1,3,5-triazin-2-yl)-1,2,3,4,4a,5-hexahydrobenzo[b]pyrazino[1,2-d] [1,4]oxazin-8-yl)-2-(1,5-dimethyl-3-phenyl-1H-pyrrol-2-yl)-2-oxoacetamide] | 0.25 (≈ 0.491 µM)
16 | Cc1cc(-c2cccc(F)c2)c(C(=O)C(=O)Nc2ccc3c(c2)OC[C@H]2CN(c4ncc(F)cn4)CCN32)n1C [Example 36, (R)-2-(3-(3-fluorophenyl)-1,5-dimethyl-1H-pyrrol-2-yl)-N-(3-(5-fluoropyrimidin-2-yl)-1,2,3,4,4a,5-hexahydrobenzo[b]pyrazino[1,2-d] [1,4]oxazin-8-yl)-2-oxoacetamide] | 0.016 (≈ 0.0294 µM)
17 | Cc1cc(-c2ccc(F)cc2)c(C(=O)C(=O)Nc2ccc3c(c2)OC[C@H]2CN(c4ncc(F)cn4)CCN32)n1C [Example 37, (R)-2-(3-(4-fluorophenyl)-1,5-dimethyl-1H-pyrrol-2-yl)-N-(3-(5-fluoropyrimidin-2-yl)-1,2,3,4,4a,5-hexahydrobenzo[b]pyrazino[1,2-d] [1,4]oxazin-8-yl)-2-oxoacetamide] | 0.016 (≈ 0.0294 µM)

Results, then the molecule that gave them:

Row | MIC [µg/mL] | SMILES
18 | 0.03 (≈ 0.0557 µM) | COc1cnc(N2CCN3c4ccc(NC(=O)C(=O)c5c(-c6ccccc6)cc(C)n5C)cc4OCC3C2)nc1 (stereo not shown) [Example 8]
19 | 0.06 (≈ 0.104 µM) | Cc1cc(-c2ccccc2)c(C(=O)C(=O)Nc2ccc3c(c2)OCC2CN(c4ncc(C(F)(F)F)cn4)CCN32)n1C (stereo not shown) [Example 9]
20 | 0.13 (≈ 0.246 µM) | Cc1cc(-c2ccccc2)c(C(=O)C(=O)Nc2cnc3c(c2)OCC2CN(c4ncc(F)cn4)CCN32)n1C (stereo not shown) [Example 22, 2-(1,5-dimethyl-3-phenyl-1H-pyrrol-2-yl)-N-(8-(5-fluoropyrimidin-2-yl)-6,6a,7,8,9,10-hexahydropyrazino[1,2-d]pyrido[3,2-b] [1,4]oxazin-3-yl)-2-oxoacetamide]
21 | 0.03 (≈ 0.0555 µM) | Cc1cc(-c2ccccc2)c(C(=O)C(=O)Nc2ccc3c(c2)COC[C@H]2CN(c4ncc(F)cn4)CCN32)n1C [Example 26]
22 | 0.03 (≈ 0.0555 µM) | Cc1cc(-c2ccccc2)c(C(=O)C(=O)Nc2ccc3c(c2)COC[C@@H]2CN(c4ncc(F)cn4)CCN32)n1C [Example 27]

tested on: not listed separately; assay: Liver microsomal stability test, human; format: in vitro ADME; conditions: Human liver microsomes, 0.5 mg/mL protein, 37° C., NADPH
Experimental: (§1) • 1: Add 10 μL of working solutions of test product or reference product and 80 μL of microsomal working solution (liver microsomal protein concentration of 0.5 mg/mL) to wells of TO, T5, T10, T20, T30, T60, and NCF60, and only microsomal working solution is added to the Blank60 wells. Then the samples of Blank60, T10, T20, T30 and T60, except for TO and NCF60, are placed in a water bath set at 37° C. and incubate for approximately 10 mins; • 2: Add 300 μL of termination solution (acetonitrile solution containing 200 ng/mL tolbutamide and 200 ng/mL labetalol) to Sample TO, followed by 10 ul of NADPH regeneration system working solution; • 3: After incubation of Blank60, T5, T10, T20, T30 and T60 on incubation plates, add 10 μL of NADPH regeneration system working solution to each sample well to start the reaction, and 10 uL of 100 mM potassium phosphate buffer is add to the NCF60 sample wells; • 4: After incubation for appropriate times (e.g., 5, 10, 20, 30 and 60 mins), 300 μL of termination solution is add to each sample well of test product and reference product on Blank60, T5, T10, T20, T30, T60 and NCF60 plates, respectively, to terminate the reaction. • 5: All sample plates are shaken well and centrifuged at 4000 rpm for 20 min, take 100 μL of the supernatant of the test product or reference product, dilute in 300 μL of pure water for LC-MS/MS analysis, respectively. • 6: Data analysis, T½ and CLint(mic) (μL/min/mg) values are calculated based on the first-order elimination kinetics, and the equations of first-order elimination kinetics are: […]

Row | CLint scaled [mL/min/kg] | half-life [min] | SMILES
23 | 52.9 | 23.6 | Cc1cc(-c2ccccc2)c(C(=O)C(=O)Nc2ccc3c(c2)OCC2CN(c4ncc(C(F)(F)F)cn4)CCN32)n1C (stereo not shown) [Example 9]

same assay, conditions: Human liver microsomes, 60 min

Row | Remaining, (T = 60 min) [%] | SMILES
24 | 16.5 | Cc1cc(-c2ccccc2)c(C(=O)C(=O)Nc2ccc3c(c2)OCC2CN(c4ncc(C(F)(F)F)cn4)CCN32)n1C (stereo not shown) [Example 9]

tested on: not listed separately; assay: Liver microsomal stability test, mouse; format: in vitro ADME; conditions: Mouse liver microsomes, 0.5 mg/mL protein, 37° C., NADPH
Experimental: as §1

Row | CLint scaled [mL/min/kg] | half-life [min] | SMILES
25 | 81.1 | 30.7 | Cc1cc(-c2ccccc2)c(C(=O)C(=O)Nc2ccc3c(c2)OCC2CN(c4ncc(C(F)(F)F)cn4)CCN32)n1C (stereo not shown) [Example 9]

same assay, conditions: Mouse liver microsomes, 60 min

Row | Remaining, (T = 60 min) [%] | SMILES
26 | 24.0 | Cc1cc(-c2ccccc2)c(C(=O)C(=O)Nc2ccc3c(c2)OCC2CN(c4ncc(C(F)(F)F)cn4)CCN32)n1C (stereo not shown) [Example 9]

Reference: patent US20240327423A1, “A SERIES OF PYRROLE DERIVATIVES AND THEIR PREPARATION METHOD AND THERAPEUTIC USE” (SHENZHEN SUNGENING BIO-MEDICAL CO., LTD, priority 2020, published 2024)
